Experimental data taken from PMC12079163 (Drug Development Research, 2025).
Values joined by “and” are separate entries in the source; they are usually repeats but may differ in a detail not shown here. Identical values can stand only once. “Also recorded” adds a separate entry of the source. Like-named read-outs stand apart in the source and are kept apart here.

What was measured:
[1] = Solubility under the assay conditions; format: physicochemical; conditions: HDAC, BCL‐2 and cell assays; data not reliable, not reported
[2] = target: T1, HDAC1 (Homo sapiens, UniProt Q13547); test: HDAC1 fluorogenic assay (BPS Bioscience 50061, run by Nanosyn); format: biochemical; conditions: for IC50: cell‐free fluorogenic assay, duplicate, errors are SEMs
T1 construct: purchased BPS Bioscience (assay run by Nanosyn) 50061
T1 sequence (Q13547 whole entry): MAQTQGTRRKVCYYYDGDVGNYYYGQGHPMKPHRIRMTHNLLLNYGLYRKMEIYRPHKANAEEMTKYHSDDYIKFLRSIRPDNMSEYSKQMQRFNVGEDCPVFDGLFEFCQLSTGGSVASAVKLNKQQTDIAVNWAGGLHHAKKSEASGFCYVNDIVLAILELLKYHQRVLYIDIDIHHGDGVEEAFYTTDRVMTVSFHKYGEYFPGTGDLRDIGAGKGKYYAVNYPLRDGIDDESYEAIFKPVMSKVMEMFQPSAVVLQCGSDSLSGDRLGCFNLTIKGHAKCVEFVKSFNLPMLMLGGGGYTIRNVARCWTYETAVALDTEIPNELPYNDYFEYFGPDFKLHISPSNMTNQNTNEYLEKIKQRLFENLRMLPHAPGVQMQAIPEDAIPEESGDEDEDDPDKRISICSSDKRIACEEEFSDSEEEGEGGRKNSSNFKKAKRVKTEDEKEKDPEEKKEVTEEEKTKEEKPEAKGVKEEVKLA

[3] = target: T2, BCL‐2 (Homo sapiens, UniProt P10415); test: BCL‐2 TR‐FRET assay (BPS Bioscience 50222, run by Nanosyn); format: binding; conditions: cell‐free TR‐FRET assay, duplicate, errors are SEMs
T2 construct: purchased BPS Bioscience (assay run by Nanosyn) 50222
T2 sequence (P10415 whole entry): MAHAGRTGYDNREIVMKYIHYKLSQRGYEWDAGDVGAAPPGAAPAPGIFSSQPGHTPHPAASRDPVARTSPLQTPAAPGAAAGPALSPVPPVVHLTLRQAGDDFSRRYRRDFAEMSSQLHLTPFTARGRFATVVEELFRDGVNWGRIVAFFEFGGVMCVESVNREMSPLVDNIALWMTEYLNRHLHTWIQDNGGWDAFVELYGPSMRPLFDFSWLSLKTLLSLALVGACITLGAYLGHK

[4] = tested on: MV4;11 cells; test: alamarBlue cell metabolism/viability assay, MV4;11; format: cell-based, human; conditions: for IC50: at least triplicate, errors are SEMs
Excerpt: (§1) As described previously, MOLM14 and MV4;11 cell lines (both human AML cell lines harboring both mixed‐lineage‐leukemia (KMT2A) rearrangement and FLT3‐ITD mutations) were obtained from DSMZ (Branschweig, DEU) and ATCC (Manassas, VA), respectively (Goodis et al. [2024]; Moses et al. [2021]); MV4;11 BCL‐2 over‐expressing (OE) cells were generated via lentiviral transduction as described previously (Empty Vector AddGene #227688; BLC‐2 OE AddGene #227690) (Goodis et al. [2024]).
(§2) Cell lines were cultured in RPMI 1640 media (Cellgro, # MDT‐10‐040‐CV) containing 10% fetal bovine serum (Gemini BioProducts #100‐106) and passaged twice per week to maintain cultures in log‐phase‐growth. Upon receipt or derivation, cell lines were expanded and multiple aliquots cryopreserved in DMSO‐containing medium in the vapor phase of liquid nitrogen. Cells were genetically authenticated and confirmed to be mycoplasma‐negative before cryopreservation. Cells from a given cryopreserved aliquot were cultured for no more than 3–4 months.
(§3) AnnV/7AAD assays were assessed by flow cytometry and analyzed using FlowLogic software v8.7.
(§4) Our dual inhibitors were next evaluated in an alamarBlue^TM cell metabolism/viability assay against 3 human AML cell lines: MOLM14, MV4;11, and MV4;11 BCL‐2 overexpressing (OE). […] However, pleasingly, several of our top compounds based on the cell‐free assay results also performed well in the AML cell‐based metabolism/viability assays.

[5] = tested on: MV4;11 BCL‐2 over‐expressing (OE) cells; test: alamarBlue cell metabolism/viability assay, MV4;11 BCL‐2 OE; format: cell-based; conditions: Homo sapiens
Excerpt: as §1, §2, §3, §4

[6] = tested on: MOLM14 cells; test: alamarBlue cell metabolism/viability assay, MOLM14; format: cell-based; conditions: Homo sapiens
Excerpt: as §1, §2, §3, §4

[7] = tested on: MV4;11 cells; test: Annexin V/7AAD apoptosis/death assay by flow cytometry; format: cell-based, human; conditions: 200 nM; for viability at 0.2 µM: Homo sapiens, 48 h, MV4;11, in Figure 2, read-out: viable cells (AnnV‐/7AAD‐), lower left quadrant
Procedure: as §3
Figure 2 Apoptotic cell death of MV4;11 AML cells. […] As a negative control, an equi‐volume of DMSO‐treated sample was also assessed. Flow cytometric dot plots of 200 nM‐treated MV4;11 cells stained with Annexin‐V and 7AAD depict the gating strategy used to delineate viable cells (AnnV‐/7AAD‐), early apoptotic cells (AnnV+/7AAD‐), and late apoptotic cells (AnnV+/7AAD +).

[8] = target: T3, HDAC6 (Homo sapiens, UniProt Q9UBN7); test: HDAC6 fluorogenic assay (BPS Bioscience 50076, run by Nanosyn); conditions: for selectivity for HDAC6 over HDAC1 (HDAC6/1 selectivity): ratio of IC50 values
T3 sequence (Q9UBN7 1-1215): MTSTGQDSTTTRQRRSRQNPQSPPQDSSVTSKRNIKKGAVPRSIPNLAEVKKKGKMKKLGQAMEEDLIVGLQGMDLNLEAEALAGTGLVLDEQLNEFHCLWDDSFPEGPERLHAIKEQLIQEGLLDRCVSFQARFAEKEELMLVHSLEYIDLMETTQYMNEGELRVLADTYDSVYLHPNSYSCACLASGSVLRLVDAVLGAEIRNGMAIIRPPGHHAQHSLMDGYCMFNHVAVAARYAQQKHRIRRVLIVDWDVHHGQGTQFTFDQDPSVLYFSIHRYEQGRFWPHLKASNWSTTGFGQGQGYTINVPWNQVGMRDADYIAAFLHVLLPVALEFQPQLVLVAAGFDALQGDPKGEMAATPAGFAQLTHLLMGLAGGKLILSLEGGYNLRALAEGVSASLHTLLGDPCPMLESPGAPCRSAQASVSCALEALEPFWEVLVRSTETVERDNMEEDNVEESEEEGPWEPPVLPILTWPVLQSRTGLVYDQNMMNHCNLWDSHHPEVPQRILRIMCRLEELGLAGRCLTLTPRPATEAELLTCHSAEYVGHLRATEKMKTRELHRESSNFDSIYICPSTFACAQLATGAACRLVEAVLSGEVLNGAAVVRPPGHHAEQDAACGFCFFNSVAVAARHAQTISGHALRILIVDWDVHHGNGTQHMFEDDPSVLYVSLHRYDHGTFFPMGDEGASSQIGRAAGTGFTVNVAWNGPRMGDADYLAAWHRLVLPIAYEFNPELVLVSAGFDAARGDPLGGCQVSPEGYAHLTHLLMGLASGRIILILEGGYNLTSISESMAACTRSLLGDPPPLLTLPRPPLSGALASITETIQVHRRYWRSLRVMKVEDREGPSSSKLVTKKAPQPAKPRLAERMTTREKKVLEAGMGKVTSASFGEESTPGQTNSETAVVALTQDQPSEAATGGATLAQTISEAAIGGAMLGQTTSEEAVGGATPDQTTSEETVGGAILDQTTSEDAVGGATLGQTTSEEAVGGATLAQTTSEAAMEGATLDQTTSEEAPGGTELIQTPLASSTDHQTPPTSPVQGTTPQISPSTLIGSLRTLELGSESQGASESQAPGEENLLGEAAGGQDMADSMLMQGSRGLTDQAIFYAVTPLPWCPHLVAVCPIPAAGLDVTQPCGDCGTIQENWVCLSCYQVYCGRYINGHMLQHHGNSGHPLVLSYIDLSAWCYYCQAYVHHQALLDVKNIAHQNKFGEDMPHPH

[9] = Homo sapiens, MV4-11, alamarBlue
[10] = MV4-11, alamarBlue, at least triplicate, errors are SEMs, read-out: IC50 MV4;11 BCL‐2 OE
[11] = MOLM-14, at least triplicate, errors are SEMs, read-out: IC50 MOLM‐14

Compound | IC50 [2] [nM] | selectivity for HDAC1 over HDAC6 ([2]; ratio of IC50 values) [fold] | IC50 [3] | IC50 [4, 9] [nM] | IC50 [5, 10] [nM] | IC50 [6, 11] [nM] | IC50 [8] [nM] | selectivity for HDAC6 over HDAC1 (HDAC6/1 selectivity) [8] | IC50 ([4]; alamarBlue) [nM] | IC50 ([5]; MV4-11, alamarBlue, read-out: IC50 MV4;11 OE BCL‐2 cell line) [nM] | IC50 ([6]; MOLM-14, read-out: IC50 MOLM14 cells) [nM] | solubility under the assay conditions [1] | induction of apoptosis compared with venetoclax ([7]; MV4;11) | viability at 0.2 µM [7] [%] | fold less active than venetoclax, MV4;11 cell metabolism/viability ([4]; IC50 compared with venetoclax) | decrease in % AnnV‐/7AAD‐ (viable) cells ([7]; MV4;11)
CC1(C)CCC(CN2CCN(c3ccc(C(=O)NS(=O)(=O)c4ccc(NCc5ccc(C(=O)Nc6ccc(-c7cccs7)cc6N)cc5)c([N+](=O)[O-])c4)c(Oc4cnc5[nH]ccc5c4)c3)CC2)=C(c2ccc(Cl)cc2)C1 [AMC‐4‐074, 2‐((1H‐pyrrolo[2,3‐b]pyridin‐5‐yl)oxy)‐N‐((4‐((4‐((2‐amino‐4‐(thiophen‐2‐yl)phenyl)carbamoyl)benzyl)amino)‐3‐nitrophenyl)sulfonyl)‐4‐(4‐((4′‐chloro‐5,5‐dimethyl‐3,4,5,6‐tetrahydro‐[1,1′‐biphenyl]‐2‐yl)methyl)piperazin‐1‐yl)benzamide] | – | – | – | – | – | – | – | – | – | – | – | solubility proved problematic; also recorded: Limited solubility | – | – | – | –
CC1(C)CCC(CN2CCN(c3ccc(C(=O)NS(=O)(=O)c4ccc(NCc5ccc(C(=O)NO)cc5)c([N+](=O)[O-])c4)c(Oc4cnc5[nH]ccc5c4)c3)CC2)=C(c2ccc(Cl)cc2)C1 [SF‐8‐038, 2‐((1H‐pyrrolo[2,3‐b]pyridin‐5‐yl)oxy)‐4‐(4‐((4′‐chloro‐5,5‐dimethyl‐3,4,5,6‐tetrahydro‐[1,1′‐biphenyl]‐2‐yl)methyl)piperazin‐1‐yl)‐N‐((4‐((4‐(hydroxycarbamoyl)benzyl)amino)‐3‐nitrophenyl)sulfonyl)benzamide] | > 30000 | – | < 1 nM and 0.617 nM | 285 ± 81 | 2450 ± 96 | > 10000 | 368 ± 85 | > 80 fold | – | – | – | – | somewhat less potent | 58.5 | ~ 3 fold | –
CC1(C)CCC(CN2CCN(c3ccc(C(=O)NS(=O)(=O)c4ccc(NCCNC(=O)c5ccc(C(=O)NO)cc5)c([N+](=O)[O-])c4)c(Oc4cnc5[nH]ccc5c4)c3)CC2)=C(c2ccc(Cl)cc2)C1 [SF‐8‐083, N ^1‐(2‐((4‐(N‐(2‐((1H‐pyrrolo[2,3‐b]pyridin‐5‐yl)oxy)‐4‐(4‐((4′‐chloro‐5,5‐dimethyl‐3,4,5,6‐tetrahydro‐[1,1′‐biphenyl]‐2‐yl)methyl)piperazin‐1‐yl)benzoyl)sulfamoyl)‐2‐nitrophenyl)amino)ethyl)‐N ^4‐hydroxyterephthalamide] | 11600 ± 1760 | – | – | > 10000 | – | – | 418 ± 34 | ~ 30 fold | – | – | – | – | – | – | – | –
CC1(C)CCC(CN2CCN(c3ccc(C(=O)NS(=O)(=O)c4ccc(NCC5CCOCC5)c([N+](=O)[O-])c4)c(Oc4cnc5[nH]ccc5c4)c3)CC2)=C(c2ccc(Cl)cc2)C1 [Venetoclax, venetoclax, reference compound] | > 30000 | – | – | 82 | 1020 ± 177 | 1720 ± 59 | > 30000 | – | 82.8 ± 16.7 | 1000 | 1700 | – | – | 49.4 | – | ~ 50%
CC1(C)CCC(CN2CCN(c3ccc(C(=O)NS(=O)(=O)c4ccc(NCC5CCN(c6ccc(C(=O)NO)cc6)CC5)c([N+](=O)[O-])c4)c(Oc4cnc5[nH]ccc5c4)c3)CC2)=C(c2ccc(Cl)cc2)C1 [AMC‐4‐154, 2‐((1H‐pyrrolo[2,3‐b]pyridin‐5‐yl)oxy)‐4‐(4‐((4′‐chloro‐5,5‐dimethyl‐3,4,5,6‐tetrahydro‐[1,1′‐biphenyl]‐2‐yl)methyl)piperazin‐1‐yl)‐N‐((4‐(((1‐(4‐(hydroxycarbamoyl)phenyl)piperidin‐4‐yl)methyl)amino)‐3‐nitrophenyl)sulfonyl)benzamide] | > 30000 | – | 0.554 ± 0.045 nM | 66.2 ± 13.6 | 631 ± 50 | > 10000 | 8710 ± 1890 | > 3 fold | – | – | – | – | induced apoptosis similar to venetoclax | 49.2 | – | –

Continued by falling IC50 [2], values first:

IC50 [2] [nM] | selectivity for HDAC1 over HDAC6 ([2]; ratio of IC50 values) [fold] | IC50 [3] | IC50 [4, 9] [nM] | IC50 [5, 10] [nM] | IC50 [6, 11] [nM] | IC50 [8] [nM] | selectivity for HDAC6 over HDAC1 (HDAC6/1 selectivity) [8] | IC50 ([4]; alamarBlue) [nM] | IC50 ([5]; MV4-11, alamarBlue, read-out: IC50 MV4;11 OE BCL‐2 cell line) [nM] | IC50 ([6]; MOLM-14, read-out: IC50 MOLM14 cells) [nM] | Compound | solubility under the assay conditions [1] | induction of apoptosis compared with venetoclax ([7]; MV4;11) | viability at 0.2 µM [7] [%] | fold less active than venetoclax, MV4;11 cell metabolism/viability ([4]; IC50 compared with venetoclax) | decrease in % AnnV‐/7AAD‐ (viable) cells ([7]; MV4;11)
6140 ± 1240 | – | – | > 10000 | – | – | – | about 20 fold | – | – | – | CC1(C)CCC(CN2CCN(c3ccc(C(=O)NS(=O)(=O)c4ccc(NCCNC(=O)c5ccc(/C=C/C(=O)NO)cc5)c([N+](=O)[O-])c4)c(Oc4cnc5[nH]ccc5c4)c3)CC2)=C(c2ccc(Cl)cc2)C1 [SF‐8‐062, (E)‐2‐((1H‐pyrrolo[2,3‐b]pyridin‐5‐yl)oxy)‐4‐(4‐((4′‐chloro‐5,5‐dimethyl‐3,4,5,6‐tetrahydro‐[1,1′‐biphenyl]‐2‐yl)methyl)piperazin‐1‐yl)‐N‐((4‐((2‐(4‐(3‐(hydroxyamino)‐3‐oxoprop‐1‐en‐1‐yl)benzamido)ethyl)amino)‐3‐nitrophenyl)sulfonyl)benzamide] | – | – | – | – | –
2880 ± 570 | > 10 | < 1 nM and 0.539 nM | 19.3 ± 5.6 | 342 ± 55 | 1630 ± 36 | > 30000 | – | – | – | – | CC1(C)CCC(CN2CCN(c3ccc(C(=O)NS(=O)(=O)c4ccc(NCc5ccc(C(=O)Nc6ccccc6N)cc5)c([N+](=O)[O-])c4)c(Oc4cnc5[nH]ccc5c4)c3)CC2)=C(c2ccc(Cl)cc2)C1 [BD‐4‐213, 2‐((1H‐pyrrolo[2,3‐b]pyridin‐5‐yl)oxy)‐N‐((4‐((4‐((2‐aminophenyl)carbamoyl)benzyl)amino)‐3‐nitrophenyl)sulfonyl)‐4‐(4‐((4′‐chloro‐5,5‐dimethyl‐3,4,5,6‐tetrahydro‐[1,1′‐biphenyl]‐2‐yl)methyl)piperazin‐1‐yl)benzamide] | – | induced apoptosis similar to venetoclax | 43.9 | – | –
463 ± 60 | – | – | > 10000 | – | – | 149 ± 20 | ~ 3 fold | – | – | – | CC1(C)CCC(CN2CCN(c3ccc(C(=O)NS(=O)(=O)c4ccc(NCCNc5ncc(C(=O)NO)cn5)c([N+](=O)[O-])c4)c(Oc4cnc5[nH]ccc5c4)c3)CC2)=C(c2ccc(Cl)cc2)C1 [BD‐4‐208, 2‐((2‐((4‐(N‐(2‐((1H‐pyrrolo[2,3‐b]pyridin‐5‐yl)oxy)‐4‐(4‐((4′‐chloro‐5,5‐dimethyl‐3,4,5,6‐tetrahydro‐[1,1′‐biphenyl]‐2‐yl)methyl)piperazin‐1‐yl)benzoyl)sulfamoyl)‐2‐nitrophenyl)amino)ethyl)amino)‐N‐hydroxypyrimidine‐5‐carboxamide] | – | – | – | – | –
